Test results taken from ChEMBL document CHEMBL3124851, “A perspective on natural products research and ethnopharmacology in Mexico: the eagle and the serpent on the prickly pear cactus” (J Nat Prod, 2014).

Legend:
Rattus norvegicus = species on record: Rattus norvegicus; assay: Increase in dopamine level in rat striatum by microdialysis assay (reference value: 4.2 nM); format: functional
D(3) dopamine receptor = D(3) dopamine receptor (Homo sapiens, UniProt P35462); assay: Agonist activity at dopamine D3 receptor (unknown origin)
[1] = Stimulation of dopaminergic neurons in rat posterior ventral tegmental area relative to ethanol; format: functional
Mus musculus [2] = assay: Antinociceptive activity in mouse at 2 mg/kg, ip by writhing test; format: functional; conditions: route intraperitoneal
Ileum = assay: Spasmolytic activity in guinea pig ileum; format: functional, tissue-based; conditions: Cavia porcellus
Mus musculus [3] = assay: Antinociceptive activity in mouse at 3 mg/kg, ip by writhing test; format: functional; conditions: route intraperitoneal

Chain of D(3) dopamine receptor (P35462 whole entry): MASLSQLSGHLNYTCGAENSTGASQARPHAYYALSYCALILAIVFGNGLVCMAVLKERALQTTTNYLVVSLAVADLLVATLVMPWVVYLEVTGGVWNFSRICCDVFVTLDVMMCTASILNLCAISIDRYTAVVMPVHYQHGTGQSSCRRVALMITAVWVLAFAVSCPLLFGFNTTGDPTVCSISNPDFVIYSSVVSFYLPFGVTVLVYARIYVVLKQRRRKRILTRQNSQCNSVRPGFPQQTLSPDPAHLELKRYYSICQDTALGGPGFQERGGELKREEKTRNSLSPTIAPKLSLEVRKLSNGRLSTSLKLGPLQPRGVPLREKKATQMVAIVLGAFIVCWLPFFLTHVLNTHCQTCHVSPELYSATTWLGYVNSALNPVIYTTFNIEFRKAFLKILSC

## C[C@H]1NCCc2cc(O)c(O)cc21
Rattus norvegicus
  Activity: 300 nM

## C[C@@H]1NCCc2cc(O)c(O)cc21
Rattus norvegicus
  Activity: 21.5 nM
D(3) dopamine receptor
  Ki: 500 nM

## CC1NCCc2cc(O)c(O)cc21 (configuration not stated)
[1]
  fold change (FC): 1000000

## COc1ccc(-c2cc(=O)c3c(O)cc(O)cc3o2)cc1 [ACACETIN]
Mus musculus [2]
  Activity: 50%
Ileum
  IC50: 1100 nM

## C[C@H]1[C@H](C)CC[C@]2(C(=O)O)CC[C@]3(C)C(=CC[C@@H]4[C@@]5(C)CC[C@H](O)C(C)(C)[C@@H]5CC[C@]43C)[C@H]12 [URSOLIC ACID]
Mus musculus [3]
  Activity: 50%
